Test results as given in ChEMBL document CHEMBL1201862, “PubChem BioAssay data set” (2004).
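Values below derive from 48-hour exposures of cells grown in 96-well plates, with endpoints linearly interpolated between the two concentrations bracketing the appropriate inhibition level. GI50 = concentration required for 50% inhibition of growth.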 Active and inactive are the calls of the source. No stated cut-off is given here; in the data, active = GI50 up to about 1.1 µM and inactive = higher.

What was measured:
Assay in all cases: inhibition of tumour cell growth, NCI panel, 48 h
786-0 = test system: 786-0
A498 = test system: A498
A549 = test system: A549
COLO 205 = test system: COLO 205
HCT-15 = test system: HCT-15
LOX IMVI = test system: LOX IMVI
MCF7 = test system: MCF7
MOLT-4 = test system: MOLT-4
NCI-H226 = test system: NCI-H226
NCI-H460 = test system: NCI-H460
OVCAR-4 = test system: OVCAR-4
PC-3 = test system: PC-3
RPMI-8226 = test system: RPMI-8226
SF-268 = test system: SF-268
SF-295 = test system: SF-295
SN12C = test system: SN12C
SNB-19 = test system: SNB-19
UACC-62 = test system: UACC-62
UO-31 = test system: UO-31
RXF 393 = test system: RXF 393

SMILES | GI50 (786-0) | GI50 (A498) | GI50 (A549) | GI50 (COLO 205) | GI50 (HCT-15) [µM] | GI50 (LOX IMVI) | GI50 (MCF7) | GI50 (MOLT-4) | GI50 (NCI-H226) | GI50 (NCI-H460) | GI50 (OVCAR-4) | GI50 (PC-3) | GI50 (RPMI-8226) | GI50 (SF-268) | GI50 (SF-295) | GI50 (SN12C) | GI50 (SNB-19) | GI50 (UACC-62) | GI50 (UO-31) | GI50 (RXF 393)
Fc1ccc(C(OCCN2CCC3CCC(C2)N3CCCc2ccccc2)c2ccc(F)cc2)cc1 (stereo not given) | 2.41 µM (inactive) | 3.02 µM (inactive) | 6.15 µM (inactive) | 1.37 µM (inactive) | 3.76 | 3.83 µM (inactive) | 3.74 µM (inactive) | 2.58 µM (inactive) | 3.94 µM (inactive) | 2.58 µM (inactive) | 5.28 µM (inactive) | 2.98 µM (inactive) | 2.48 µM (inactive) | 6.62 µM (inactive) | 2.77 µM (inactive) | 3.57 µM (inactive) | 10.1 µM (inactive) | 5.75 µM (inactive) | 5.56 µM (inactive) | –
CC(C)(C)CC(N)=O | > 100 µM (inactive) | > 100 µM (inactive) | > 100 µM (inactive) | > 100 µM (inactive) | > 100 | > 100 µM (inactive) | > 100 µM (inactive) | > 10 µM (inactive) | > 100 µM (inactive) | > 100 µM (inactive) | > 100 µM (inactive) | > 100 µM (inactive) | > 10 µM (inactive) | > 100 µM (inactive) | > 100 µM (inactive) | > 100 µM (inactive) | > 100 µM (inactive) | > 100 µM (inactive) | > 100 µM (inactive) | –
C(=N\c1ccc(-c2nc3ccccc3o2)cc1)/c1ccco1 | 75.2 µM (inactive) | 37.7 µM (inactive) | – | 37.7 µM (inactive) | 49.3 | 58.9 µM (inactive) | 91.2 µM (inactive) | 29 µM (inactive) | – | – | 57.4 µM (inactive) | 55.7 µM (inactive) | 0.0453 µM (active) | – | – | 61.9 µM (inactive) | > 100 µM (inactive) | – | 41.4 µM (inactive) | 39.7 µM (inactive)
CC1=C(C)C(=O)C(C2=CC(=O)c3ccccc3C2=O)=C(C2=CC(=O)c3ccccc3C2=O)C1=O | 7.46 µM (inactive) | 23.4 µM (inactive) | 19.4 µM (inactive) | 1.99 µM (inactive) | 0.646 | 1.39 µM (inactive) | 1.88 µM (inactive) | – | 13.1 µM (inactive) | 10.1 µM (inactive) | 5.04 µM (inactive) | 5.74 µM (inactive) | – | 8.15 µM (inactive) | 12.3 µM (inactive) | 2.61 µM (inactive) | 4.54 µM (inactive) | 7.19 µM (inactive) | 2.84 µM (inactive) | 2.52 µM (inactive)
O=c1[nH]nc(Cc2ccccc2)n1CCO | > 100 µM (inactive) | > 100 µM (inactive) | > 100 µM (inactive) | > 100 µM (inactive) | > 100 | > 100 µM (inactive) | > 100 µM (inactive) | > 100 µM (inactive) | > 100 µM (inactive) | > 100 µM (inactive) | > 100 µM (inactive) | > 100 µM (inactive) | > 100 µM (inactive) | > 100 µM (inactive) | > 100 µM (inactive) | > 100 µM (inactive) | > 100 µM (inactive) | > 100 µM (inactive) | > 100 µM (inactive) | –
CC(C#N)NCc1ccc(C(C)NC(C)C#N)cc1 (stereo not given) | > 100 µM (inactive) | > 100 µM (inactive) | > 100 µM (inactive) | > 100 µM (inactive) | > 100 | > 100 µM (inactive) | > 100 µM (inactive) | > 100 µM (inactive) | > 100 µM (inactive) | > 100 µM (inactive) | > 100 µM (inactive) | > 100 µM (inactive) | – | > 100 µM (inactive) | > 100 µM (inactive) | > 100 µM (inactive) | > 100 µM (inactive) | > 100 µM (inactive) | 93.1 µM (inactive) | > 100 µM (inactive)
CC[n+]1cnc(N)c2c(-c3ccc(Cl)cc3)cn(-c3ccc(C)cc3)c21 | 11.4 µM (inactive) | 11.4 µM (inactive) | 12.7 µM (inactive) | 3.78 µM (inactive) | 14.9 | 11.4 µM (inactive) | 0.971 µM (active) | 4.52 µM (inactive) | 13.2 µM (inactive) | 15.7 µM (inactive) | 2.77 µM (inactive) | 10.5 µM (inactive) | – | 13.6 µM (inactive) | 12.7 µM (inactive) | 12.3 µM (inactive) | 15.5 µM (inactive) | 11.4 µM (inactive) | 9.93 µM (inactive) | 3.05 µM (inactive)
OC12C3C4CC5C(C4[C@@H]1Br)C2[C@@](O)(c1c(F)c(F)c(F)c(F)c1F)C53 (stereo not given in full) | 41.7 µM (inactive) | 33.2 µM (inactive) | 33.7 µM (inactive) | 39.4 µM (inactive) | 39.8 | 32.1 µM (inactive) | 20.4 µM (inactive) | 26.5 µM (inactive) | – | 33.7 µM (inactive) | 28.2 µM (inactive) | 23.3 µM (inactive) | – | 38.7 µM (inactive) | 25.9 µM (inactive) | > 100 µM (inactive) | 37.2 µM (inactive) | 25.6 µM (inactive) | 29.8 µM (inactive) | 24.3 µM (inactive)
COc1cc(C(=O)CBr)c(OC)cc1C | > 100 µM (inactive) | 84.7 µM (inactive) | > 100 µM (inactive) | > 100 µM (inactive) | > 100 | > 100 µM (inactive) | > 100 µM (inactive) | > 100 µM (inactive) | 75.5 µM (inactive) | – | – | > 100 µM (inactive) | > 100 µM (inactive) | > 100 µM (inactive) | > 100 µM (inactive) | > 100 µM (inactive) | > 100 µM (inactive) | 85.7 µM (inactive) | 97.3 µM (inactive) | > 100 µM (inactive)
Cc1ccc(SCC(CSCCO)OCn2cnc3c2N=C(N)NC32OCCO2)cc1 (stereo not given) | > 100 µM (inactive) | > 100 µM (inactive) | > 100 µM (inactive) | – | > 100 | > 100 µM (inactive) | > 100 µM (inactive) | > 100 µM (inactive) | – | > 100 µM (inactive) | > 100 µM (inactive) | > 100 µM (inactive) | > 100 µM (inactive) | > 100 µM (inactive) | > 100 µM (inactive) | – | > 100 µM (inactive) | – | > 100 µM (inactive) | > 100 µM (inactive)
Oc1ccccc1/C=N/c1ccc(Oc2ccc(Cl)cc2)c(Cl)c1 | 26 µM (inactive) | 11.5 µM (inactive) | 20.6 µM (inactive) | 21.8 µM (inactive) | 16.3 | 15.7 µM (inactive) | 41.7 µM (inactive) | 30.1 µM (inactive) | 25.2 µM (inactive) | 18.6 µM (inactive) | 22.4 µM (inactive) | 20.9 µM (inactive) | 21.5 µM (inactive) | 17.9 µM (inactive) | 18.7 µM (inactive) | 21.8 µM (inactive) | 17.4 µM (inactive) | 24.9 µM (inactive) | 11.1 µM (inactive) | –
COc1ccc(NC(=S)Nc2c(C)n(C)n(-c3ccccc3)c2=O)cc1 | > 100 µM (inactive) | > 100 µM (inactive) | > 100 µM (inactive) | > 100 µM (inactive) | > 100 | > 100 µM (inactive) | > 100 µM (inactive) | > 100 µM (inactive) | > 100 µM (inactive) | > 100 µM (inactive) | – | > 100 µM (inactive) | > 100 µM (inactive) | > 100 µM (inactive) | > 100 µM (inactive) | – | > 100 µM (inactive) | > 100 µM (inactive) | > 100 µM (inactive) | > 100 µM (inactive)
COc1cc2c(cc1OC)C1c3ccccc3CCCN1CC2 (stereo not given) | > 100 µM (inactive) | > 100 µM (inactive) | > 100 µM (inactive) | > 100 µM (inactive) | > 100 | > 100 µM (inactive) | > 100 µM (inactive) | > 100 µM (inactive) | > 100 µM (inactive) | > 10 µM (inactive) | > 100 µM (inactive) | > 100 µM (inactive) | 46.7 µM (inactive) | > 100 µM (inactive) | 47.6 µM (inactive) | > 100 µM (inactive) | > 100 µM (inactive) | > 100 µM (inactive) | 8.41 µM (inactive) | –
C[C@@H](C1CC[C@H]2[C@@H]3[C@@H]4O[C@@H]4[C@@]4(O)CC=CC(=O)[C@]4(C)[C@H]3C[C@H](O)[C@]12C)[C@H]1C[C@]2(C)O[C@]2(C)C(=O)O1 (stereo not given in full) | > 100 µM (inactive) | > 100 µM (inactive) | > 100 µM (inactive) | > 100 µM (inactive) | > 100 | > 100 µM (inactive) | > 100 µM (inactive) | > 100 µM (inactive) | > 100 µM (inactive) | > 100 µM (inactive) | > 100 µM (inactive) | > 100 µM (inactive) | > 100 µM (inactive) | > 100 µM (inactive) | > 100 µM (inactive) | > 100 µM (inactive) | > 100 µM (inactive) | > 100 µM (inactive) | > 100 µM (inactive) | –
O=C1CC(c2cccc(Cl)c2)Oc2ccccc21 (stereo not given) | 16.7 µM (inactive) | 24.7 µM (inactive) | – | 23.7 µM (inactive) | 15.9 | 20 µM (inactive) | 6.4 µM (inactive) | – | 21.4 µM (inactive) | 18.4 µM (inactive) | 22.4 µM (inactive) | 15.7 µM (inactive) | 3.65 µM (inactive) | 22.3 µM (inactive) | 19.4 µM (inactive) | – | 15.3 µM (inactive) | 14.9 µM (inactive) | 13.8 µM (inactive) | –
